Source: patent US7902186B2, “Substituted 5-phenyl-3,6-dihydro-2-oxo-6H-1,3,4-thiadiazines” (Merck Patent GmbH, priority 2005, dated 2011)

Biological target: T1, Met kinase (Homo sapiens, UniProt P08581)
T1 construct: 6His (N); purchased Upstate 14-526; host or cells: Sf21 insect cells (S. frugiperda), baculovirus
Assay: Met kinase inhibition, flashplate method
Type: biochemical
Conditions: 33P-ATP, substrate pAGLT, 3 hrs at room temperature, read-out: IC50 (enzyme)
Excerpt: Measurement of Met Kinase Activity
According to the manufacturer's data (Met, active, upstate, catalogue No. 14-526), Met kinase is expressed for the purposes of protein production in insect cells (Sf21; S. frugiperda) and subsequent affinity-chromatographic purification as “N-terminal 6His-tagged” recombinant human protein in a baculovirus expression vector.
Flashplate Method (Met Kinase)
The test plates used are 96-well Flashplate® microtitre plates from Perkin Elmer (Cat. No. SMP200). The components of the kinase reaction described below are pipetted into the assay plate. The Met kinase and the substrate poly Ala-Glu-Lys-Tyr, (pAGLT, 6:2:5:1), are incubated for 3 hrs at room temperature with radioactively labelled ^33P-ATP in the presence and absence of test substances in a total volume of 100 μl. The reaction is terminated using 150 μl of a 60 mM EDTA solution. After incubation for a further 30 min at room temperature, the supernatants are filtered off with suction, and the wells are washed three times with 200 μl of 0.9% NaCl solution each time. The measurement of the bound radioactivity is carried out by means of a scintillation measuring instrument (Topcount NXT, Perkin-Elmer).
The full value used is the inhibitor-free kinase reaction. This should be approximately in the range 6000-9000 cpm. The pharmacological zero value used is staurosporin in a final concentration of 0.1 mM. The inhibitory values (IC50) are determined using the RS1_MTS program.
Kinase Reaction Conditions Per Well:
• 30 μl of assay buffer • 10 μl of substance to be tested in assay buffer with 10% of DMSO • 10 μl of ATP (final concentration 1 μM cold, 0.35 μCi of ^33P-ATP) • 50 μl of Met kinase/substrate mixture in assay buffer; • (10 ng of enzyme/well, 50 ng of pAGLT/well)
Assay Buffer: • 50 mM HEPES • 3 mM magnesium chloride • 3 μM sodium orthovanadate • 3 mM manganese(II) chloride • 1 mM dithiothreitol (DTT) • pH=7.5 (to be set using sodium hydroxide)
Stop Solution: • 60 mM Titriplex III (EDTA)
^33P-ATP: Perkin-Elmer; • Met kinase: Upstate, Cat. No. 14-526, Stock 1 μg/10 μl; spec. activity 954 U/mg; • Poly-Ala-Glu-Lys-Tyr, 6:2:5:1: Sigma Cat. No. P1152

T1 sequence (P08581 974-1390 limits assumed): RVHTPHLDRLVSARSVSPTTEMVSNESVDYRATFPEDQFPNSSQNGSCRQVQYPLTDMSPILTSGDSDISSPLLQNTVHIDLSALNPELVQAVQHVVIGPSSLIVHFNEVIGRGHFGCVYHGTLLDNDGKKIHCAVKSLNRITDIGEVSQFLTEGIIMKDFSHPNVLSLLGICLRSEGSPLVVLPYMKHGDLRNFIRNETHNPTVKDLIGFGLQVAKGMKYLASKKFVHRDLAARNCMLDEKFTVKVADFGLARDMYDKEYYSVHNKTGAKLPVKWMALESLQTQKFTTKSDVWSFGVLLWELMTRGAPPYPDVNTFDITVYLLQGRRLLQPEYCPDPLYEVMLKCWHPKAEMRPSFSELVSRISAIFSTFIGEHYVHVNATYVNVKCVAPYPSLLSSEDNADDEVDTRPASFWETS

| SMILES | IC50 |
| --- | --- |
| CN(C)CCCOC(=O)Nc1cccc(CN2N=C(c3ccc(Cl)cc3)CSC2=O)c1 [Compound A6] | 10 to 1000 nM |
| CCOC(=O)Nc1cccc(CN2N=C(c3ccc(Cl)cc3)CSC2=O)c1 [Compound A7] | 10 to 1000 nM |
| CN(C)CCCOC(=O)Nc1cccc(CN2N=C(c3cccc(F)c3)CSC2=O)c1 [Compound A11] | 10 to 1000 nM |
| CN(C)CCCOC(=O)Nc1cccc(CN2N=C(c3ccccc3F)CSC2=O)c1 [Compound A12] | 10 to 1000 nM |
| COc1ccccc1C1=NN(Cc2cccc(NC(=O)OCCCN(C)C)c2)C(=O)SC1 [Compound A17] | 10 to 1000 nM |
| CN(C)CCCOC(=O)Nc1cccc(CN2N=C(c3ccc(C#N)cc3)CSC2=O)c1 [Compound A20] | 10 to 1000 nM |
| CC(c1cccc(NC(=O)OCCCN2CCOCC2)c1)N1N=C(c2ccc(F)c(F)c2)CSC1=O (stereo not shown) [Compound A29] | 10 to 1000 nM |
| CC(c1cccc(NC(=O)OCCCN2CCN(C)CC2)c1)N1N=C(c2ccc(F)c(F)c2)CSC1=O (stereo not shown) [Compound A30] | 10 to 1000 nM |
| CC(c1cccc(NC(=O)OCCCN(C)C)c1)N1N=C(c2ccc(F)c(F)c2)CSC1=O (stereo not shown) [Compound A31] | 10 to 1000 nM |
| CCNCCCOC(=O)Nc1cccc(CN2N=C(c3ccc(C#N)cc3)CSC2=O)c1 [Compound A33] | 10 to 1000 nM |
| CNCC(=O)Nc1cccc(CN2N=C(c3cc(Cl)ccc3O)CSC2=O)c1 [Compound B1, N-{3-[5-(5-chloro-2-hydroxyphenyl)-2-oxo-6H-1,3,4-thiadiazin-3-ylmethyl]phenyl}-2-methylaminoacetamide] | 10 to 1000 nM |
| O=C(Nc1cccc(CN2N=C(c3cc(Cl)ccc3O)CSC2=O)c1)c1cccnc1 [Compound B4] | 10 to 1000 nM |
| O=C(Nc1cccc(CN2N=C(c3ccccc3O)CSC2=O)c1)c1cccnc1 [Compound B6] | 10 to 1000 nM |
